Reference: patent publication US11591569B2, “Methods for epicardial differentiation of human pluripotent stem cells” (Wisconsin Alumni Research Foundation, priority 2015, dated 2023)

Legend:
Type in all cases: cell-based, human
[1] = test system: hPSC-derived epicardial cells; test: Long-term expansion of hPSC-derived epicardial cells
Description: Long-Term Maintenance of hPSC-Derived Epicardial Cells: To expand the epicardial cells, confluent cells on day 3 or 4 of differentiation were split 1:3 at a density of 0.04 to 0.08 million cells/cm^2 using Versene (Life Technologies) or Accutase and routinely passaged onto gelatin-coated plates in LaSR basal medium or RPMI/Vc/Ins medium and 0.5 μM A83-01 (Stemgent) or 2 μM SB431542 (Stemgent) with medium changed daily until the cells reached confluence. Overnight treatment of 5 μM Y27632 and 1% human recombinant albumin (Sigma-Aldrich) on single cells during passage was used to improve cell attachment and survival, but they were not required once cells attached.
Flow Cytometry Analysis: Cells were dissociated into single cells with Accutase for 10 minutes and then fixed with 1% paraformaldehyde for 20 minutes at room temperature and stained with primary and secondary antibodies (Table 1) in PBS plus 0.1% Triton X-100 and 0.5% BSA. Data were collected on a FACSCaliber flow cytometer (Beckton Dickinson) and analyzed using FlowJo. FACS gating was based on the corresponding isotype antibody control.

[2] = test system: hPSCs; test: Cardiac progenitor induction from hPSCs, gene expression by quantitative RT-PCR; conditions: 6 μM CHIR99021 at day 0 in RPMI medium, H13 hESCs
Description: Cardiac Progenitor Induction Via Modulation of Canonical Wnt Signaling: When hPSCs maintained on a SyntheMax-coated surface achieved confluence, cells were singularized with Accutase (Innovative Cell Technologies) at 37° C. for 5 minutes and then seeded onto a SyntheMax-coated cell culture dish at 250,000 cells/cm^2 in mTeSR1 or E8 supplemented with 5 μM ROCK inhibitor Y-27632 (Selleckchem) (day −3) for 24 hours. Cells were then cultured in mTeSR1 or E8, changed daily. At day 0, cells were treated with 6 μM CHIR99021 (Selleckchem) for 24 hours in RPMI medium, followed by a change with RPMI medium at day 1. 2.5-5 μM IWP2 (Tocris) was added at day 3 and removed during the medium change at day 5.
(§1) RT-PCR and Quantitative RT-PCR: Total RNA was prepared with the RNeasy mini kit (QIAGEN) and treated with DNase (QIAGEN). 1 μg RNA was reverse transcribed into cDNA via Oligo (dT) with Superscript III Reverse Transcriptase (Invitrogen). Real-time quantitative PCR was done in triplicate with iQSYBR Green SuperMix (Bio-Rad). GAPDH was used as an endogenous housekeeping control.

[3] = test system: hPSC-derived cardiac progenitors; test: Epicardial (WT1+) differentiation of hPSC-derived cardiac progenitors, flow cytometry at day 12; conditions: for cTnT+WT1+ cells: day 6 progenitors treated day 7 to day 9, day 12 flow cytometry; for WT1+ cell differentiation compared with 3 μM CHIR99021: 0.3 μM, day 7 to day 9, GiWiGi protocol, flow cytometry at day 12
Description: Epicardial Cell Generation Via Activation of Canonical Wnt Signaling: At day 6, cardiac progenitor cells were singularized with Accutase at 37° C. for 5 minutes and then seeded onto a gelatin-coated cell culture dish at 20,000-80,000 cells/cm^2 in LaSR basal medium (advanced DMEM/F12 with 100 μg/mL ascorbic acid) or RPMI/Vc/Ins medium (100 μg/mL ascorbic acid and 1 μg/mL human recombinant or bovine insulin (Sigma)) with 5 μM ROCK inhibitor Y-27632 for 24 hours. […] Data were collected on a FACSCaliber flow cytometer (Beckton Dickinson) and analyzed using FlowJo. FACS gating was based on the corresponding isotype antibody control. Pro-epicardium arises from ISL1+NKX2.5+ second heart field progenitors in vivo^1,41.

[4] = test system: hPSC-derived epicardial cells; test: EMT induction of hPSC-derived epicardial cells; conditions: 10 ng/mL bFGF, 5 ng/mL TGFβ1; for Cell morphology after treatment: H13 hESC-derived epicardial cells, day 18; for Expression of WT1 and ZO1: immunostaining; for EMT (CDH1 decreased, CDH2 and SNAIL2 increased versus untreated controls): qPCR and E-cadherin immunostaining
Description: Single Cell Passage and EMT Induction: Confluent WT1+ cells were dissociated into single cells with Accutase at 37° C. for 5 minutes and then seeded onto a gelatin-coated cell culture dish at 10,000 cells/cm^2 in LaSR basal medium supplemented with 5 μM ROCK inhibitor Y-27632 for 24 hr. After 24 hours, medium was changed to LaSR basal medium and cells were treated with TGFβ1 or bFGF (R&D Systems) as indicated. Medium was changed every 3 days until analysis.
Immunostaining Analysis: Cells were fixed with 4% paraformaldehyde for 15 minutes at room temperature and then stained with primary and secondary antibodies (Table 1) in PBS plus 0.4% Triton X-100 and 5% non-fat dry milk (Bio-Rad). Nuclei were stained with Gold Anti-fade Reagent with DAPI (Invitrogen). An epifluorescence microscope (Leica DM IRB) with a QImaging® Retiga 4000R camera was used for imaging analysis.
as §1

[5] = day 6 ISL1+NKX2.5+ progenitors treated 48 hours (day 7 to day 9), H13 hESC-derived day 12 cultures, concentrations per Table 3

Molecule: Cc1cccc(-c2nn(C(=S)Nc3ccccc3)cc2-c2ccnc3ccccc23)n1 [A83-01]
- Expandability of epicardial cells from additional hPSC lines ([1]; 19-9-11 iPSC-derived epicardial cells, 0.5 μM A83-01): expandable
- Expansion with retention of epithelial morphology and WT1 expression ([1]; H13 hESC-derived day 18 epicardial cells, treated 3 days, 0.5 μM): enabled expansion of hPSC-derived epicardial cells that retained polarized epithelial morphology and WT1 expression

Molecule: Cc1c[nH]c(-c2cnc(NCCNc3ccc(C#N)cn3)nc2-c2ccc(Cl)cc2Cl)n1 [CHIR99021]
- Gene expression changes in the first 24 hr after addition [2]: down-regulation of the pluripotency markers OCT4 and NANOG, and induction of the primitive streak like gene T
- WT1+ cells ([3]; 3 μM CHIR, initial density 0.06 million cells per cm^2, LaSR basal medium, day 12): more than 95%
- WT1+ cells [3, 5]: more than 85%

Molecule: c1cc(-c2cnn3cc(-c4ccc(OCCN5CCCCC5)cc4)cnc23)ccn1 [dorsomorphin]
- WT1+ cells [3, 5]: about 10%
- cTnT+WT1+ cells [3]: 2%

Molecule: CC1=C(/C=C/C(C)=C/C=C/C(C)=C/C(=O)O)C(C)(C)CCC1 [retinoic acid]
- WT1+ cells [3, 5]: about 10%
- cTnT+WT1+ cells [3]: 2%

Molecule: BIO-acetoxime
- WT1+ cell differentiation compared with 3 μM CHIR99021 [3]: induced WT1+ cell differentiation to a similar extent as 3 μM CHIR99021

Molecule: CHIR98014
- WT1+ cell differentiation compared with 3 μM CHIR99021 [3]: induced WT1+ cell differentiation to a similar extent as 3 μM CHIR99021

Molecule: TGFβ: TGFβ pathway protein modulator (R&D Systems)
- Cell morphology after treatment [4]: fusiform-shaped appearance
- Expression of WT1 and ZO1 [4]: significantly decreased
- EMT (CDH1 decreased, CDH2 and SNAIL2 increased versus untreated controls) [4]: induced EMT

Molecule: bFGF: FGF pathway protein modulator (R&D Systems)
- Cell morphology after treatment [4]: fibroid spindle
- Expression of WT1 and ZO1 [4]: significantly decreased
- EMT (CDH1 decreased, CDH2 and SNAIL2 increased versus untreated controls) [4]: induced EMT

B1: Bone Morphogenetic Protein 4 (protein, UniProt P12644 293-408, looked up)
Bone morphogenetic protein 4: SPKHHSQRARKKNKNCRRHSLYVDFSDVGWNDWIVAPPGYQAFYCHGDCPFPLADHLNSTNHAIVQTLVNSVNSSIPKACCVPTELSAISMLYLDEYDKVVLKNYQEMVVEGCGCR
notes: TGFβ superfamily growth factor
- Cell population obtained in the presence of CHIR ([3]; co-treatment with CHIR (2 μM CHIR99021, FIG. 10), day 7 to day 9, day 12 flow cytometry of cTnT and WT1): yielded an unknown population at the expense of WT1+ cells
- WT1+ cells [3, 5]: about 10%
- cTnT+WT1+ cells [3]: 2%
